Test systems include A498 renal; ACHN renal; HS 578T breast; M14 melanoma; MDA-MB-231 breast; NCI-H460 lung; OVCAR-4 ovarian; OVCAR-8 ovarian; SK-MEL-2 melanoma; SNB-75 CNS.
Common to all, as to test: NCI-60 cell line screen, 48 h

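Assay format: 96-well plates, 48-hour exposure. GI50: concentration for 50% inhibition of growth. TGI marks complete inhibition of growth.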 A value given as a limit tells only on which side of the number the result lay.

The values that follow come from PubChem BioAssay (NCI).

With `CCOC(=O)C(=Cc1c(-c2ccccc2)[nH]c2ccccc12)C(=O)OCC`, the GI50 in the experiment on A498 renal was 15800 nM; in the experiment with ACHN renal, 4340 nM; in the experiment on HS 578T breast, 3530 nM; with M14 melanoma, 4.16 µM; in the experiment with MDA-MB-231 breast, 5710 nM; in the experiment on NCI-H460 lung, 3.75 µM. For the same compound, the GI50 is 5.49 µM in the experiment on OVCAR-4 ovarian, 4080 nM with OVCAR-8 ovarian, 4.6 µM in the experiment on SK-MEL-2 melanoma and 6.55 µM in the experiment on SNB-75 CNS. For the same compound, the TGI came to 55.6 µM in the experiment on A498 renal; 23.6 µM in the experiment with ACHN renal; 28.8 µM with HS 578T breast; 15.6 µM in the experiment on M14 melanoma; 34.8 µM with MDA-MB-231 breast; 13.6 µM with NCI-H460 lung. In addition, the TGI was greater than 76.5 µM in the experiment with OVCAR-4 ovarian, 17.9 µM in the experiment with OVCAR-8 ovarian, 17.3 µM in the experiment on SK-MEL-2 melanoma and 28.4 µM in the experiment on SNB-75 CNS.
Consider `COC12C=C/C(=C(/C(=O)OCc3csc(SC)n3)C(=O)CCCCCCCCC3(OC)C=C/C(=C(/C(=O)OCc4cnc(SC)s4)C(=O)CCCCCCCC1)O3)O2` (configuration not stated), for which the GI50 was 2440 nM with A498 renal; 2510 nM in the experiment with ACHN renal; 4520 nM with HS 578T breast; 2.62 µM in the experiment on M14 melanoma; 2510 nM in the experiment with MDA-MB-231 breast; 4.57 µM in the experiment on NCI-H460 lung. Moreover, the GI50 in the experiment on OVCAR-4 ovarian was 3.19 µM; in the experiment with OVCAR-8 ovarian, 2080 nM; with SK-MEL-2 melanoma, 3.69 µM; in the experiment on SNB-75 CNS, 7.61 µM. Besides, the TGI with A498 renal was 21.8 µM; in the experiment with ACHN renal, 28.9 µM; in the experiment on HS 578T breast, 57.6 µM; in the experiment with M14 melanoma, greater than 100 µM; in the experiment on MDA-MB-231 breast, 26.2 µM; with NCI-H460 lung it was greater than 100 µM. Further, the TGI is greater than 100 µM with OVCAR-4 ovarian, 32.4 µM in the experiment with OVCAR-8 ovarian, 16.6 µM in the experiment with SK-MEL-2 melanoma and 28.9 µM in the experiment with SNB-75 CNS.
With `CC[C@H](C)[C@H](NC(=O)N[C@@H](C)c1ccccc1)C(=O)N(C)[C@H](C[C@@H](OC(C)=O)c1nc(C(=O)N[C@@H](Cc2ccccc2)C[C@H](C)C(=O)OC)cs1)C(C)C`, the GI50 was 29300 nM in the experiment with ACHN renal; 15900 nM with HS 578T breast; 15.9 µM with M14 melanoma; 20700 nM in the experiment on MDA-MB-231 breast; 26.6 µM with NCI-H460 lung; 38.5 µM in the experiment on OVCAR-4 ovarian. Further, the GI50 in the experiment with OVCAR-8 ovarian is 35400 nM; in the experiment on SK-MEL-2 melanoma it was 18.3 µM; in the experiment with SNB-75 CNS it was 13.8 µM. In addition, the TGI with ACHN renal is greater than 100 µM; in the experiment on HS 578T breast, 56.7 µM; with M14 melanoma it was 46.7 µM; in the experiment on MDA-MB-231 breast, 63.8 µM; in the experiment with NCI-H460 lung it was 95.5 µM; in the experiment on OVCAR-4 ovarian it was greater than 100 µM. The TGI in the experiment with OVCAR-8 ovarian, in the experiment on SK-MEL-2 melanoma and in the experiment on SNB-75 CNS was greater than 100 µM throughout.
As for `CC(=O)Nc1ccc2c(c1)CN1C(=O)c3ccccc3C1=N2`, the GI50 was greater than 100000 nM with A498 renal; greater than 100000 nM in the experiment on ACHN renal; greater than 100000 nM in the experiment on HS 578T breast; greater than 100 µM with M14 melanoma; greater than 100000 nM in the experiment on MDA-MB-231 breast; greater than 100 µM in the experiment with NCI-H460 lung. Besides, the GI50 with OVCAR-4 ovarian was greater than 100 µM; in the experiment with OVCAR-8 ovarian, greater than 100000 nM; in the experiment with SNB-75 CNS it was greater than 100 µM. Moreover, the TGI in the experiment with A498 renal, in the experiment with ACHN renal, in the experiment with HS 578T breast, in the experiment with M14 melanoma, in the experiment with MDA-MB-231 breast and with NCI-H460 lung was greater than 100 µM in each case. For the same compound, the TGI with OVCAR-4 ovarian, in the experiment with OVCAR-8 ovarian and in the experiment on SNB-75 CNS was greater than 100 µM each time.
As for `C/C(=N\O)[C@H]1CC[C@@]2(C)[C@@H]3CC[C@H]4C(C)(C)/C(=N/O)CC[C@@]45CC35CC[C@]12C` (some centres not stated), the GI50 is 2460 nM in the experiment with A498 renal; 2510 nM in the experiment with ACHN renal; 2230 nM with HS 578T breast; 3.2 µM in the experiment with M14 melanoma; 7460 nM with MDA-MB-231 breast; 5.05 µM in the experiment with NCI-H460 lung. The GI50 in the experiment with OVCAR-8 ovarian is 3640 nM; in the experiment with SK-MEL-2 melanoma, 13.4 µM; in the experiment on SNB-75 CNS, 7.46 µM. The TGI with A498 renal was 5.87 µM; in the experiment with ACHN renal, 4.97 µM; in the experiment with HS 578T breast it was 7.54 µM; in the experiment with M14 melanoma it was 8.11 µM; with MDA-MB-231 breast, greater than 16.7 µM; with NCI-H460 lung it was greater than 16.7 µM. In addition, the TGI in the experiment on OVCAR-8 ovarian was 9.39 µM; in the experiment on SK-MEL-2 melanoma, greater than 16.7 µM; in the experiment with SNB-75 CNS it was 14.8 µM.
`NCCn1c2c(c3ccccc3c1=O)C(=O)c1ccccc1-2`: the GI50 is 476 nM with A498 renal; less than 45.3 nM in the experiment with ACHN renal; 1580 nM in the experiment on HS 578T breast; 431 nM in the experiment on MDA-MB-231 breast; 0.982 µM in the experiment with OVCAR-4 ovarian; 91.5 nM in the experiment on OVCAR-8 ovarian. In addition, the GI50 with SK-MEL-2 melanoma is 2.7 µM; with SNB-75 CNS it was 1.04 µM. Besides, the TGI in the experiment with A498 renal came to 5.49 µM; in the experiment on ACHN renal, 0.31 µM; in the experiment on HS 578T breast, 6.66 µM; in the experiment on MDA-MB-231 breast it was 1.49 µM; in the experiment with NCI-H460 lung it was 6.4 µM; with OVCAR-4 ovarian it was 3.48 µM. Further, the figures for the TGI in the experiment on OVCAR-8 ovarian, with SK-MEL-2 melanoma and with SNB-75 CNS were 1.57 µM, 9.71 µM and 3.2 µM, respectively.
Take `Cc1cc2c(-c3nc4ccccn4c3NC34CC5CC(CC(C5)C3)C4)c(O)c(O)cc2c(O)c1-c1c(C)cc2c(-c3nc4ccccn4c3NC34CC5CC(CC(C5)C3)C4)c(O)c(O)cc2c1O`: the GI50 was 817 nM in the experiment with A498 renal; 785 nM in the experiment with ACHN renal; 850 nM with HS 578T breast; 763 nM in the experiment on MDA-MB-231 breast; 0.0903 µM with NCI-H460 lung; 0.728 µM in the experiment on OVCAR-4 ovarian. Further, the GI50 in the experiment with OVCAR-8 ovarian was 871 nM; in the experiment with SK-MEL-2 melanoma, 0.802 µM; in the experiment on SNB-75 CNS, 1.04 µM. The TGI in the experiment with A498 renal was greater than 25 µM; with ACHN renal, 2.88 µM; in the experiment with HS 578T breast it was 16.2 µM; with MDA-MB-231 breast, 11.4 µM; with NCI-H460 lung, 2.1 µM; with OVCAR-4 ovarian it was greater than 25 µM. Besides, the TGI in the experiment on OVCAR-8 ovarian is greater than 25 µM; with SK-MEL-2 melanoma it was 6.25 µM; in the experiment on SNB-75 CNS, 19.1 µM.
On to `O=c1c2ccccc2c(=O)c2c1sc1c(=O)c3ccc(O)cc3c(=O)c12`, for which the GI50 was 574 nM with A498 renal; 864 nM in the experiment with ACHN renal; 330 nM in the experiment on HS 578T breast; 0.0976 µM with M14 melanoma; 1720 nM in the experiment on MDA-MB-231 breast; 0.88 µM with OVCAR-4 ovarian. The GI50 was 1780 nM with OVCAR-8 ovarian, 1.47 µM in the experiment on SK-MEL-2 melanoma and 0.183 µM in the experiment with SNB-75 CNS. Also, the TGI with A498 renal came out at 1.72 µM; with ACHN renal it was 2.38 µM; in the experiment on HS 578T breast it was 0.973 µM; with M14 melanoma it was 0.219 µM; in the experiment on MDA-MB-231 breast, 8.19 µM; in the experiment on OVCAR-4 ovarian, 2.1 µM. The TGI with OVCAR-8 ovarian was determined as 8.31 µM; in the experiment on SK-MEL-2 melanoma it was 3.88 µM; with SNB-75 CNS, 0.4 µM.
